In paper PMC4138991, “Building a Better Dynasore: The Dyngo Compounds Potently Inhibit Dynamin and Endocytosis” (Traffic (Copenhagen, Denmark), 2013):

How the values were obtained:
[1] = tested on: mitochondria in HeLa cells; assay: Mitotracker labeling of mitochondria, live confocal imaging; format: cell-based; details: 30 μM 4a, 30 μM 6a or 100 μM dynasore, 30 min
Description: Dynasore was originally reported to inhibit the GTPase activity of dynamin‐like protein 1 (Dlp‐1), which is involved in mitochondrial fission. This raises the possibility that dynasore and the Dyngo compounds may affect mitochondrial morphology and/or dynamics in cells. We investigated this by labeling mitochondria in live HeLa cells using Mitotracker Green FM and imaging the cells over time using confocal microscopy. These cells stably expressed an mCherry‐conjugated form of the nuclear histone protein H2B, providing contrast to the green mitochondria.
HeLa cells were used that had been stably transduced to express H2B-mCherry. Cells were cultured at 37 °C, 5% CO2 in RPMI medium with 10% FBS. Expression of the transgene was maintained by puromycin selection. The day before imaging, cells were seeded on 4-chambered, glass bottomed 35 mm round dish at a density of 1 x 10^5 cells per chamber. The next day, cells were washed 4x in PBS and then incubated either in RPMI + 10% FBS or RPMI alone for 4 h. Medium was then removed and replaced with Mitotracker green-FM (150 nM) diluted in Hank’s buffered salt solution. Cells were incubated in Mitotracker for 20 min and then returned to RPMI either with or without serum. Cells were then imaged in a Yokugawa CV1000 Cell Voyager live cell confocal system prior to the application of compounds. Compounds were then applied: control samples received 1% DMSO, while test samples received 4a, 6a or dynasore (final DMSO concentration of 1%). Cells were incubated for at 37 °C, 5% CO2 and then images acquired over 2 h at 6 min intervals. 6 images were taken of each test condition.

[2] = molecular target: T1, AP-2 alpha ear binding to amphiphysin 1 (Mus musculus, UniProt P17427); assay: ELISA-based AP-2 binding assay
T1 construct: GST-AP-2 α-appendage (amino acids 702–938); made in house; host or cells: bacteria
Description: The assay for the interaction of amphiphysin with either clathrin or AP2 was based on our previous report (11). Bacterially expressed recombinant purified His6-tagged amphiphysin 1 PRD+CLAP domains (amino acids 250-578) in screening buffer (20 mM HEPES, pH 7.4, 50 mM NaCl, 1 mM DTT, 1 mM PMSF) was added to a 384 well ELISA plate (high-binding PS Microplate, Greiner Bio-One) and bound to the plastic at room temperature for 1 hr. Non-specific binding was reduced by overnight incubation with 50 µL blocking buffer (20 mM HEPES, pH 7.4, 50 mM NaCl, 1 mM PMSF, 2 % BSA, 2.5 % skim milk) at 4 °C. Following extensive washes (with 20 mM HEPES, pH 7.4, 50 mM NaCl, 0.05 % Tween 20), chemical compounds diluted in DMSO (10 µL) were added and incubated together with bacterially expressed recombinant GST-tagged clathrin heavy chain TD (amino acids 1-364) or GST-AP-2 α-appendage (amino acids 702–938) for 1 hr at room temperature in screening buffer. This incubation was in the presence of test compounds diluted in 1% DMSO or 1% DMSO alone as a control. After 3 washes, horseradish peroxidase-coupled anti-GST antibodies were added in screening buffer and the plate incubated for 15 min at room temperature. Following additional washes, 50 µL TMB (3,3′,5,5′-tetramethylbenzidine) (Pierce Biotechnology) chromogenic substrate of horseradish peroxidase was added and the plate was incubated for 20 min before the reaction was terminated by adding 50 µL 1 N sulfuric acid to produce a yellow colour. The amount of bound protein was determined by spectrophotometric measurement in a plate reader in triplicates. Relative binding was calculated as a percentage of the DMSO control.

[3] = MTT growth inhibition assay; format: cell-based; details: human
Description: A 30 mM stock solution of each test compound was prepared in dimethylsulphoxide (DMSO) and stored at −20 °C. All cell lines were cultured at 37 °C, under 5% CO2 in air and were maintained in Dulbecco’s modified Eagle’s medium (Trace Biosciences, Australia) supplemented with 10% foetal bovine serum, 10 mM sodium bicarbonate penicillin (100 IU/mL), streptomycin (100 µg/mL), and glutamine (4 mM). Cells in logarithmic growth were transferred to 96-well plates. Cytotoxicity was determined by plating cells in duplicate in […] medium at a density of 2,500–4,000 cells/well. On day 0, (24 h after plating) when the cells were in logarithmic growth, 100 μL medium with or without the test agent was added to each well. After 72 h drug exposure, growth inhibitory effects were evaluated using the MTT (3-[4,5-dimethyltiazol-2-yl]-2,5-diphenyl-tetrazolium bromide) assay and absorbance read at 540 nm. A dose response curve was produced allowing for the calculation of a GI50 value. This value is the drug concentration at which cell growth is inhibited by 50% based on the difference between the optical density values on day 0 and those at the end of drug exposure.

[4] = tested on: HeLa cells; assay: LDH toxicity assay; format: cell-based; details: 8-h exposure, with or without serum
Description: Cytotoxicity was assayed by determination of lactate dehydrogenase (LDH) activity. HeLa cells were seeded in 96 well plates as described previously (11) Asynchronously growing cells were treated in the presence or absence of MiTMAB or the indicated Dyngo compound in the presence and absence of FCS at the indicated concentration for 8h. The supernatant (50 μL) was added to 100 μL of LDH assay reagent (Sigma- Aldrich) and the reaction was allowed to develop for 20 min. Absorbance was measured at 490 nm and 690 nm (plate background absorbance). Values were normalized to drug/media background value and toxicity was calculated as a % of a 100% lysed cell control.

[5] = MCF-7 breast cancer cells, MCF-7, MTT

T1 sequence (P17427 702-938): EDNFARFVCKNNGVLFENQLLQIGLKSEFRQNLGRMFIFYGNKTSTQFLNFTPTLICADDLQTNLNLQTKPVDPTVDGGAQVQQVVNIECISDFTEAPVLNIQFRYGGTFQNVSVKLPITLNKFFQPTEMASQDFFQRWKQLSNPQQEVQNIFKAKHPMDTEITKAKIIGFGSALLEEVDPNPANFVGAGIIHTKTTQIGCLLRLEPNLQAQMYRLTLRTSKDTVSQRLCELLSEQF

## O=C(N/N=C/c1cc(O)c(O)cc1O)c1cc2ccccc2cc1O [4a, (E)-3-Hydroxy-N'-(2,4,5-trihydroxybenzylidene) -2-naphthohydrazide]
[1]
  mitochondrial morphology: did not mediate any changes in mitochondrial morphology
[2]
  times less potent on AP-2 binding than for dynamin I inhibition: ~1000 times
[2]; ELISA, n = 1 in triplicate
  IC50: 362 µM
[3]; A431 skin cancer cells
  GI50 at 72 h: > 50 µM
[3]; BE2-C neuroblastoma cells
  GI50 at 72 h: > 50 µM
[3]; DU145 prostate cancer cells
  GI50 at 72 h: > 50 µM
[3]; H460 lung cancer cells
  GI50 at 72 h: > 50 µM
[3]; HT29 colon cancer cells
  GI50 at 72 h: > 50 µM
[3]; [5]
  GI50 at 72 h: > 50 µM
[3]; SJ-G2 glioblastoma cells
  GI50 at 72 h: > 50 µM
[3]; SW480 colon cancer cells
  GI50 at 72 h: > 50 µM
[3]; ovarian cancer cells
  GI50 at 72 h: > 50 µM
[4]
  generalized cytotoxicity by LDH activity: did not exhibit generalized cytotoxicity

## O=C(N/N=C/c1cccc(O)c1O)c1cc2ccccc2cc1O [6a, (E)-N'-(2,3-Dihydroxybenzylidene)-3-hydroxy-2-naphthohydrazide]
[1]
  mitochondrial morphology: appeared to cause mitochondrial fragmentation
[2]; ELISA, n = 1 in triplicate
  IC50 AP-2 alpha ear binding to amphiphysin 1: no effect
[3]; A431 skin cancer cells
  GI50 at 72 h: > 50 µM
[3]; BE2-C neuroblastoma cells
  GI50 at 72 h: > 50 µM
[3]; DU145 prostate cancer cells
  GI50 at 72 h: > 50 µM
[3]; H460 lung cancer cells
  GI50 at 72 h: > 50 µM
[3]; HT29 colon cancer cells
  GI50 at 72 h: > 50 µM
[3]; [5]
  GI50 at 72 h: > 50 µM
[3]; SJ-G2 glioblastoma cells
  GI50 at 72 h: > 50 µM
[3]; SW480 colon cancer cells
  GI50 at 72 h: > 50 µM
[3]; ovarian cancer cells
  GI50 at 72 h: > 50 µM
[4]
  generalized cytotoxicity by LDH activity: did not exhibit generalized cytotoxicity

## O=C(N/N=C/c1ccc(O)c(O)c1)c1cc2ccccc2cc1O [Dynasore, (E)-N'-(3,4-Dihydroxybenzylidene)-3-hydroxy-2-naphthohydrazide]
[1]
  mitochondrial morphology: did not mediate any changes in mitochondrial morphology
[2]; ELISA, n = 1 in triplicate
  IC50 AP-2 alpha ear binding to amphiphysin 1: no effect
[3]; A431 skin cancer cells
  GI50 at 72 h: 14 ± 0.6 µM
[3]; BE2-C neuroblastoma cells
  GI50 at 72 h: 8.6 ± 0.4 µM
[3]; DU145 prostate cancer cells
  GI50 at 72 h: 23 ± 1.7 µM
[3]; H460 lung cancer cells
  GI50 at 72 h: 21 ± 1.9 µM
[3]; HT29 colon cancer cells
  GI50 at 72 h: 12 ± 1.3 µM
[3]; [5]
  GI50 at 72 h: 14 ± 0.3 µM
[3]; SJ-G2 glioblastoma cells
  GI50 at 72 h: 12 ± 1.7 µM
[3]; SW480 colon cancer cells
  GI50 at 72 h: 3.6 ± 0.1 µM
[3]; ovarian cancer cells
  GI50 at 72 h: 6.7 ± 0.4 µM
[4]
  generalized cytotoxicity by LDH activity: did not exhibit generalized cytotoxicity
